# Measured values reported in ChEMBL document CHEMBL3046076, “3D-QSAR CoMFA and CoMSIA studies on a set of diverse 1a-adrenergic receptor antagonists” (Med Chem Res, 2011).
# Target: T1, Alpha-1A adrenergic receptor (Homo sapiens, UniProt P35348)
# T1 sequence (P35348 whole entry): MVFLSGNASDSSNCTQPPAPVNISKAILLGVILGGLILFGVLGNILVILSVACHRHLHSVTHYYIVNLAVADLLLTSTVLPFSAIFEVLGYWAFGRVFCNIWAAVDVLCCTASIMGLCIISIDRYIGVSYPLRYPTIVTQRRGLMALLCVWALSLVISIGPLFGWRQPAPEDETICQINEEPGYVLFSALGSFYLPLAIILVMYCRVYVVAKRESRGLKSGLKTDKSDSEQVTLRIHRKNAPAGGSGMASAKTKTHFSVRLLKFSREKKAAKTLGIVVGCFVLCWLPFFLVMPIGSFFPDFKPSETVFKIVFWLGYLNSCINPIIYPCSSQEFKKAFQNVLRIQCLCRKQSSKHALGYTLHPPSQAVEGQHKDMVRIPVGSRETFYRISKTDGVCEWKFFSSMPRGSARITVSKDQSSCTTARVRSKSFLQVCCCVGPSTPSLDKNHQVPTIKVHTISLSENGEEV
# Experiment: Binding affinity to adrenergic alpha1A receptor (unknown origin)
# Conditions: read-out: Ki
row,Compound,Ki
1,C[N+](C)(CCOc1ccccc1)CC1COC(c2ccccc2)(c2ccccc2)O1 (stereo unspecified),24.5 nM
2,CN(CCOc1ccccc1)CC1COC(c2ccccc2)(c2ccccc2)O1 (stereo unspecified),33.9 nM
3,c1ccc(OCCNC2COCC(c3ccccc3)(c3ccccc3)O2)cc1 (stereo unspecified),170 nM
4,COc1cccc(OC)c1OCCNC1COCC(c2ccccc2)(c2ccccc2)O1 (stereo unspecified),339 nM
5,COc1cccc(OC)c1OCCN[C@H]1C[C@@H](c2ccccc2)c2ccccc2O1,0.05 nM
6,COc1cccc(OC)c1OCCN[C@H]1C[C@@H](c2ccccc2)c2ccccc2S1,0.08 nM
7,COc1cccc(OC)c1OCCNC[C@@H]1C(=O)c2ccccc2C[C@H]1c1ccccc1,8.7 nM
8,COc1ccccc1N1CCN(CC2CO[C@H](c3cccc4ccccc34)O2)CC1 (stereo partly specified),7.94 nM
9,COc1ccccc1N1CCN(CC2CO[C@H](c3ccccc3)O2)CC1 (stereo partly specified),28.8 nM
10,COc1ccccc1N1CCN(CC2COC3(CCCCC3)O2)CC1 (stereo unspecified),91.2 nM
11,COc1cc2nc3c(c(N)c2cc1OC)CCC(CNC(=O)c1ccoc1)C3 (stereo unspecified),95.5 nM
12,COc1cc2nc3c(c(N)c2cc1OC)CC(CNC(=O)c1ccoc1)C3 (stereo unspecified),158 nM
13,COc1cc2nc3c(c(N)c2cc1OC)CCC(CNCOc1c(OC)cccc1OC)C3 (stereo unspecified),1700 nM
14,COc1cccc(OC)c1OCCN[C@H]1CO[C@H](c2ccccc2)CO1,513 nM
15,COc1cccc(OC)c1OCCN[C@H]1COC[C@H](c2ccccc2)O1,468 nM
16,c1ccc(OCCNC2COC(c3ccccc3)(c3ccccc3)CO2)cc1 (stereo unspecified),224 nM
17,c1ccc(OCCN[C@H]2CO[C@H](c3ccccc3)CO2)cc1,537 nM
18,O=C1CC2(CCCC2)CC(=O)N1CCN1CCN(c2ccccc2)CC1,2680 nM
19,O=C1CC2(C=CN1CCN1CCN(c3ccccc3Cl)CC1)CCCC2,43.1 nM
20,O=C1CC2(CCCC2)CCN1CCN1CCN(c2ccccc2Cl)CC1,70 nM
21,CC(CN1CCN(c2cc(Cl)ccc2Cl)CC1)N1C(=O)CC2(CCCC2)CC1=O (stereo unspecified),149 nM
22,Cc1ccc(C)c(N2CCN(CCN3C(=O)CC4(CCCC4)CC3=O)CC2)c1,95.4 nM
23,COc1ccccc1N1CCN(CCN2C=CC3(CCCC3)CC2=O)CC1,23.4 nM
24,Cc1ccc(Cl)c(N2CCN(CCN3C(=O)CC4(CCCC4)CC3=O)CC2)c1,100 nM

# Further compounds by falling Ki, results first:
row,Ki,Compound
1,407 nM,c1ccc(OCCN[C@H]2COC[C@H](c3ccccc3)O2)cc1
2,403 nM,N#Cc1ccc(Cl)cc1N1CCN(CCN2C(=O)CC3(CCCC3)CC2=O)CC1
3,236 nM,O=C1CC2(CCCC2)CC(=O)N1CCN1CCCN(c2ccccc2Cl)CC1
4,171 nM,N#Cc1ccccc1N1CCN(CCN2C(=O)CC3(CCCC3)CC2=O)CC1
5,86.2 nM,O=C1CC2(CCCC2)CC(=O)N1CCN1CCN(c2cc(F)ccc2Cl)CC1
6,74.1 nM,COc1ccccc1OCCNC1COC(c2ccccc2)(c2ccccc2)CO1 (stereo unspecified)
7,54.6 nM,O=C1CC2(CCCC2)C(=O)N1CCN1CCN(c2cc(Cl)ccc2Cl)CC1
8,36.3 nM,COc1ccccc1N1CCN(CC2CO[C@@H](c3cccc4ccccc34)O2)CC1 (stereo partly specified)
9,5.88 nM,COc1ccccc1N1CCN(CC(O)COc2cccc3ccccc23)CC1 (stereo unspecified) [NAFTOPIDIL]
10,2.83 nM,CC(C)Oc1ccccc1N1CCN(CCN2C(=O)CC3(CCCC3)CC2=O)CC1
11,2.34 nM,COc1cccc(OC)c1OCCN[C@H]1C[C@H](c2ccccc2)c2ccccc2S1
12,1.45 nM,O=C1CC2(CCCC2)CC(=O)N1CCCCN1CCN(c2cc(Cl)ccc2Cl)CC1

# Same assay, conditions: read-out: pKi (converted)
row,Ki,Compound
1,0.0891 nM,COc1cccc(OC)c1OCCN[C@H]1C[C@@H](c2ccccc2)c2ccccc2S1
2,2570 nM,COc1cc2nc3c(c(N)c2cc1OC)CCC(CNC(=O)c1ccoc1)C3 (stereo unspecified)
3,43.7 nM,O=C1CC2(C=CN1CCN1CCN(c3ccccc3Cl)CC1)CCCC2
4,151 nM,CC(CN1CCN(c2cc(Cl)ccc2Cl)CC1)N1C(=O)CC2(CCCC2)CC1=O (stereo unspecified)
5,407 nM,N#Cc1ccc(Cl)cc1N1CCN(CCN2C(=O)CC3(CCCC3)CC2=O)CC1
